Test results as given in patent US8124624B2, “Substituted sulfonamide compounds” (Gruenenthal GmbH, priority 2008, dated 2012).

These compounds were tested against T1, B1R of the rat (Rattus norvegicus, UniProt P97583) (assay: FLIPR Ca2+ influx assay, B1R antagonism, rat (rB1R CHO K1 cells)). Details: test substance 10 μM; CHO K1 cells stably transfected with rat B1R; agonist Des-Arg9-bradykinin at EC80; % inhibition compared with maximum achievable inhibition.
T1 construct: expressed in transfected cells; host or cells: CHO K1 cells (rB1R cells)
T1 sequence (P97583 1-337): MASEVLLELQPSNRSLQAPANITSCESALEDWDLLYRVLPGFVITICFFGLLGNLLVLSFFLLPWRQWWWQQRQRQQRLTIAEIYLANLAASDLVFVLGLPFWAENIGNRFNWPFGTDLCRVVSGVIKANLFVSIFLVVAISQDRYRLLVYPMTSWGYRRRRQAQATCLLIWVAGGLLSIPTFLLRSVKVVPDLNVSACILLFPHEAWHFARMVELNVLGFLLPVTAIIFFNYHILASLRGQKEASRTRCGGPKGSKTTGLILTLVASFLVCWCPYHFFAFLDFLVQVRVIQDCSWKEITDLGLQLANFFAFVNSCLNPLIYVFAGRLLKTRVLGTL
Assay type: cell-based
Description: The agonistic or antagonistic action of substances can be quantified on the bradykinin receptor 1 (B1R) of the species human and rat using ectopically expressing cell lines (CHO K1 cells) and with the aid of a Ca^2+-sensitive dye (Fluo-4) using a fluorescent imaging plate reader (FLIPR). The indication in % activation is based on the Ca^2+ signal after addition of Lys-Des-Arg^9-bradykinin (0.5 nM) or Des-Arg^9-bradykinin (100 nM). Antagonists lead to suppression of the Ca^2+ influx after the addition of the agonist. % Inhibition compared with the maximum achievable inhibition is indicated.
The agonistic or antagonistic action of substances can be determined on the bradykinin receptor 1 (B1R) of the species human and rat using the following assay. According to this assay, the Ca^2+ influx through the channel is quantified with the aid of a Ca^2+-sensitive dye (Fluo-4 type, Molecular Probes Europe BV, Leiden, Netherlands) using a Fluorescent Imaging Plate Reader (FLIPR, Molecular Devices, Sunnyvale, USA).
Chinese hamster ovary cells (CHO K1 cells) which have been stably transfected with the human B1R gene (hB1R cells) or with the B1R gene of the rat (rB1R cells) are used. For functional studies, the cells are plated out on black 96-well plates having a clear base (BD Biosciences, Heidelberg, Germany or Greiner, Frickenhausen, Germany) in a density of 20,000-35,000 cells/well. The cells are incubated overnight at 37° C. and with 5% CO2 in culture medium (hB1R cells: Nutrient Mixture Ham's F12, Gibco Invitrogen GmbH, Karlsruhe, Germany or DMEM, Sigma-Aldrich, Taufkirchen, Germany; rB1R cells: D-MEM/F12, Gibco Invitrogen GmbH, Karlsruhe, Germany), with 10 vol. % FBS (fetal bovine serum, Gibco Invitrogen GmbH, Karlsruhe, Germany or PAN Biotech GmbH, Aidenbach, Germany).
On the following day, the cells are loaded for 60 minutes at 37° C. with 2.13 μM Fluo-4 (Molecular Probes Europe BV, Leiden, Netherlands) in HBSS buffer (Hank's buffered saline solution, Gibco Invitrogen GmbH, Karlsruhe, Germany) […] (Sigma-Aldrich, Taufkirchen, Germany) and 10 mM HEPES (Sigma-Aldrich, Taufkirchen, Germany). The plates are then washed twice with HBSS buffer, and HBSS buffer additionally containing 0.1% BSA (bovine serum albumin; Sigma-Aldrich, Taufkirchen, Germany), 5.6 mM glucose and 0.05% gelatin (Merck KGaA, Darmstadt, Germany) is added to the plates. After incubation for a further 20 minutes at room temperature, the plates are inserted into the FLIPR for Ca^2+ measurement.
Alternatively, washing is carried out with buffer A (15 mM HEPES, 80 mM NaCl, 5 mM KCl, 1.2 mM CaCl2, 0.7 mM MgSO4, 2 g/l glucose, 2.5 mM probenecid) followed by loading with buffer A with added 2.5 μM Fluo-4 and 0.025% Pluronic F127 (Sigma-Aldrich, Taufkirchen, Germany). The cells are then washed twice with buffer A and incubated for 30 minutes at room temperature with buffer A additionally containing 0.05% BSA and 0.05% gelatin and are then inserted into the FLIPR for Ca^2+ measurement.
The Ca^2+-dependent fluorescence is measured before and after the addition of substances (λex=488 nm, λem=540 nm). Quantification is carried out by measuring the highest fluorescence intensity (FC, fluorescence counts) over time.
The FLIPR protocol consists of two substance additions. Test substances (10 μM) are first pipetted onto the cells and the Ca^2+ influx is compared with the control (hB1R: Lys-Des-Arg^9-bradykinin >=50 nM; rB1R: Des-Arg^9-bradykinin 10 μM). This gives the activation in %, based on the Ca^2+ signal after addition of Lys-Des-Arg^9-bradykinin (>=50 nM) or Des-Arg^9-bradykinin (10 μM). After 10-20 minutes' incubation, Lys-Des-Arg^9-bradykinin (hB1R) or Des-Arg^9-bradykinin (rB1R) is applied in the concentration of the EC80, and the influx of Ca^2+ is likewise determined. Antagonists lead to suppression of the Ca^2+ influx. The % inhibition compared with the maximum achievable inhibition is calculated. […]

Going from `O=C(COCC1CCc2ccccc2N1S(=O)(=O)c1ccc2ccccc2c1)N1CCC(CCCN2CCCC2)(c2cccnc2)CC1` (centres unmarked) [Example 52, 2-[[1-(Naphthalen-2-ylsulfonyl)-1,2,3,4-tetrahydro-quinolin-2-yl]-methoxy]-1-[4-pyridin-3-yl-4-(3-pyrrolidin-1-yl-propyl)-piperidin-1-yl]-ethanone] to `CS(=O)(=O)N(CCOCC(=O)N1CCC(CCCN2CCCC2)(c2ccncc2)CC1)C(c1ccccc1)c1ccccc1` [Example 66, N-Benzhydryl-N-[2-[2-oxo-2-[4-pyridin-4-yl-4-(3-pyrrolidin-1-yl-propyl)-piperidin-1-yl]-ethoxy]-ethyl]-methanesulfonic acid amide], the “B1R antagonism, rat [10 μM] % inhibition” value rises from 83% to 99%.

`O=C(CCCC1CCCCN1S(=O)(=O)c1ccccc1C(F)(F)F)N1CCC(CCCN2CCCC2)(c2ccncc2)CC1` (centres unmarked) [Example 59, 1-[4-Pyridin-4-yl-4-(3-pyrrolidin-1-yl-propyl)-piperidin-1-yl]-4-[1-[[2-(trifluoromethyl)-phenyl]sulfonyl]-piperidin-2-yl]-butan-1-one] and `COc1cc(C)c(S(=O)(=O)N2CCCCC2CCOCC(=O)N2CCC(CCCN3CCCC3)(c3cccnc3)CC2)c(C)c1` (centres unmarked) [Example 46, 2-[2-[1-[(4-Methoxy-2,6-dimethyl-phenyl)sulfonyl]-piperidin-2-yl]-ethoxy]-1-[4-pyridin-3-yl-4-(3-pyrrolidin-1-yl-propyl)-piperidin-1-yl]-ethanone] are the same in “B1R antagonism, rat [10 μM] % inhibition” value: 101% for the first, 101% for the second.

Compared with `COc1cc(C)c(S(=O)(=O)N(CCOCC(=O)N2CCC(CCCN3CCCC3)(c3ccncc3)CC2)Cc2ccccc2)c(C)c1` [Example 40, N-Benzyl-4-Methoxy-2,6-dimethyl-N-[2-[2-oxo-2-[4-pyridin-4-yl-4-(3-pyrrolidin-1-yl-propyl)-piperidin-1-yl]-ethoxy]-ethyl]-benzenesulfonic acid amide], `CS(=O)(=O)N(CCOCC(=O)N1CCC(CCCN2CCCC2)(c2ccncc2)CC1)C(c1ccccc1)c1ccccc1` [Example 65, N-Benzhydryl-N-[2-[2-oxo-2-[4-pyridin-4-yl-4-(3-pyrrolidin-1-yl-propyl)-piperidin-1-yl]-ethoxy]-ethyl]-methanesulfonic acid amide] is lower in “B1R antagonism, rat [10 μM] % inhibition” value: 100% for the first, 63% for the second.

Same assay, conditions: test substance 10 μM; CHO K1 cells stably transfected with rat B1R; agonist Des-Arg9-bradykinin at EC80; % inhibition compared with maximum achievable inhibition; read-out: B1R antagonism, rat [10 μM] % inhibition

First: CN(CCCC(=O)N1CCC(CCCN2CCCC2)(c2cccnc2)CC1)S(=O)(=O)c1cccc(C(F)(F)F)c1 [Example 47, N-Methyl-N-[4-Oxo-4-[4-pyridin-3-yl-4-(3-pyrrolidin-1-yl-propyl)-piperidin-1-yl]-butyl]-3-(trifluoromethyl)-benzenesulfonic acid amide]
Second: O=C(COCC1COc2ccccc2N1S(=O)(=O)c1ccccc1C(F)(F)F)N1CCC(CCCN2CCCC2)(c2cccnc2)CC1 (centres unmarked) [Example 73, 1-[4-Pyridin-3-yl-4-(3-pyrrolidin-1-yl-propyl)-piperidin-1-yl]-2-[[4-[[2-(trifluoromethyl)-phenyl]sulfonyl]-3,4-dihydro-2H-[1,4]benzoxazin-3-yl]-methoxy]-ethanone]
The inhibition at 10 µM of the first is lower: 53% for the first, 84% for the second.

First: COc1cc(C)c(S(=O)(=O)N(CCOCC(=O)N2CCC(CCCN3CCCC3)(c3ccncc3)CC2)Cc2ccc3c(c2)OCOC3)c(C)c1 [Example 76, N-(4H-[1,3]Benzodioxin-7-yl-methyl)-4-methoxy-2,6-dimethyl-N-[2-[2-oxo-2-[4-pyridin-4-yl-4-(3-pyrrolidin-1-yl-propyl)-piperidin-1-yl]-ethoxy]-ethyl]-benzenesulfonic acid amide]
Second: COc1cc(C)c(S(=O)(=O)N(C)CCOCC(=O)N2CCC(CCCN3CCCC3)(c3ccncc3)CC2)c(C)c1 [Example 30, 4-Methoxy-N,2,6-trimethyl-N-[2-[2-oxo-2-[4-pyridin-4-yl-4-(3-pyrrolidin-1-yl-propyl)-piperidin-1-yl]-ethoxy]-ethyl]-benzenesulfonic acid amide]
The inhibition at 10 µM of the first is higher: 101% for the first, 100% for the second.

Going from `O=C(COCC1CCc2ccccc2N1S(=O)(=O)c1ccc2ccccc2c1)N1CCC(CCCN2CCCC2)(c2cccnc2)CC1` (centres unmarked) [Example 51, 2-[[1-(Naphthalen-2-ylsulfonyl)-1,2,3,4-tetrahydro-quinolin-2-yl]-methoxy]-1-[4-pyridin-3-yl-4-(3-pyrrolidin-1-yl-propyl)-piperidin-1-yl]-ethanone] to `COc1cc(C)c(S(=O)(=O)N2c3ccccc3OCC2COCC(=O)N2CCC(CCCN3CCCC3)(c3ccncc3)CC2)c(C)c1` (centres unmarked) [Example 69, 2-[[4-[(4-Methoxy-2,6-dimethyl-phenyl)sulfonyl]-3,4-dihydro-2H-[1,4]benzoxazin-3-yl]-methoxy]-1-[4-pyridin-4-yl-4-(3-pyrrolidin-1-yl-propyl)-piperidin-1-yl]-ethanone], the inhibition at 10 µM rises from 80% to 99%.

Going from `O=C(CCCC1CCCCN1S(=O)(=O)c1cccc2ccccc12)N1CCC(CCCN2CCCC2)(c2ccncc2)CC1` (centres unmarked) [Example 64, 4-[1-(Naphthalen-1-ylsulfonyl)-piperidin-2-yl]-1-[4-pyridin-4-yl-4-(3-pyrrolidin-1-yl-propyl)-piperidin-1-yl]-butan-1-one] to `Cc1cccc(Cl)c1S(=O)(=O)N1CCCCC1CCCC(=O)N1CCC(CCCN2CCCC2)(c2ccncc2)CC1` (centres unmarked) [Example 56, 4-[1-[(2-Chloro-6-methyl-phenyl)sulfonyl]-piperidin-2-yl]-1-[4-pyridin-4-yl-4-(3-pyrrolidin-1-yl-propyl)-piperidin-1-yl]-butan-1-one], the inhibition at 10 µM rises from 46% to 97%.

`COc1cc(C)c(S(=O)(=O)N2CCCCC2CCOCC(=O)N2CCC(CCCN3CCCC3)(c3cccnc3)CC2)c(C)c1` (centres unmarked) [Example 45, 2-[2-[1-[(4-Methoxy-2,6-dimethyl-phenyl)sulfonyl]-piperidin-2-yl]-ethoxy]-1-[4-pyridin-3-yl-4-(3-pyrrolidin-1-yl-propyl)-piperidin-1-yl]-ethanone] and `COc1cc(C)c(S(=O)(=O)N2CCCCC2CCCC(=O)N2CCC(CCCN3CCCC3)(c3ccncc3)CC2)c(C)c1` (centres unmarked) [Example 62, 4-[1-[(4-Methoxy-2,6-dimethyl-phenyl)sulfonyl]-piperidin-2-yl]-1-[4-pyridin-4-yl-4-(3-pyrrolidin-1-yl-propyl)-piperidin-1-yl]-butan-1-one] are the same in inhibition at 10 µM: 100% for the first, 100% for the second.

For `COc1cc(C)c(S(=O)(=O)N(CCOCC(=O)N2CCC(CCCN3CCCC3)(c3ccncc3)CC2)c2ccccc2)c(C)c1` [Example 50, 4-Methoxy-2,6-Dimethyl-N-[2-[2-oxo-2-[4-pyridin-4-yl-4-(3-pyrrolidin-1-yl-propyl)-piperidin-1-yl]-ethoxy]-ethyl]-N-phenyl-benzenesulfonic acid amide], the inhibition at 10 µM was 100%.
